According to PubChem BioAssay AID256 (DTP/NCI, 2004):
Values joined by “and” are separate entries in the source; they are usually repeats but may differ in a detail not shown here. Equal values may be shown once. Inconclusive results and toxic doses are left out. How the source made its calls: active means survival T/C of 150% or more; inactive means T/C below 125% in these data.

Tested on: CD2F1 mice, L1210 leukemia ip, survival T/C
Assay: NCI In Vivo Anticancer Drug Screen. Data for tumor model L1210 Leukemia (intraperitoneal) in CD2F1 (CDF1) mice
Conditions: higher = longer survival
In short: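 Compound-dosed mice with transplantable tumor versus matched vehicle controls; endpoint ratio T/C reported.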

[1] = endpoint: mean survival time, dose: 100.0 mg/kg/injection, schedule: Q04DX003 (ip), vehicle: saline with Tween-80
[2] = endpoint: mean survival time, dose: 200.0 mg/kg/injection, schedule: Q04DX003 (ip), vehicle: saline with Tween-80
[3] = endpoint: mean survival time, dose: 400.0 mg/kg/injection, schedule: Q04DX003 (ip), vehicle: saline with Tween-80
[4] = endpoint: mean survival time, dose: 12.5 mg/kg/injection, schedule: Q01DX009 (ip), vehicle: other
[5] = endpoint: mean survival time, dose: 25.0 mg/kg/injection, schedule: Q01DX009 (ip), vehicle: other
[6] = endpoint: mean survival time, dose: 50.0 mg/kg/injection, schedule: Q01DX009 (ip), vehicle: other
[7] = endpoint: mean survival time, dose: 100.0 mg/kg/injection, schedule: Q01DX009 (ip), vehicle: saline with Tween-80
[8] = endpoint: mean survival time, dose: 200.0 mg/kg/injection, schedule: Q01DX009 (ip), vehicle: saline with Tween-80
[9] = endpoint: mean survival time, dose: 400.0 mg/kg/injection, schedule: Q01DX009 (ip), vehicle: saline with Tween-80
[10] = endpoint: mean survival time, dose: 200.0 mg/kg/injection, schedule: Q01DX001 (ip), vehicle: saline with Tween-80
[11] = endpoint: mean survival time, dose: 50.0 mg/kg/injection, schedule: Q01DX009 (ip), vehicle: saline with Tween-80
[12] = endpoint: mean survival time, dose: 100.0 mg/kg/injection, schedule: Q01DX001 (ip), vehicle: saline
[13] = endpoint: mean survival time, dose: 200.0 mg/kg/injection, schedule: Q01DX001 (ip), vehicle: saline
[14] = endpoint: mean survival time, dose: 75.0 mg/kg/injection, schedule: Q01DX001 (ip), vehicle: saline
[15] = endpoint: mean survival time, dose: 150.0 mg/kg/injection, schedule: Q01DX001 (ip), vehicle: saline
[16] = endpoint: mean survival time, dose: 100.0 mg/kg/injection, schedule: Q04DX003 (ip), vehicle: saline
[17] = endpoint: mean survival time, dose: 25.0 mg/kg/injection, schedule: Q01DX009 (ip), vehicle: saline with Tween-80

Measured: T/C

OC(C/C(=N\Nc1ccccc1)c1ccc(F)cc1)(C(F)(F)F)C(F)(F)F
inactive: [1] 100 % of control | [2] 98 % of control | [3] 96 % of control

O=C(C1CCCCC1)C1CCC2(CCCCC2)CC1
inactive: [4] 92 % of control | [5] 87 % of control | [6] 93 % of control | endpoint: mean survival time, dose: 100.0 mg/kg/injection, schedule: Q01DX009 (ip), vehicle: other 92 % of control | endpoint: mean survival time, dose: 200.0 mg/kg/injection, schedule: Q01DX009 (ip), vehicle: other 95 % of control

COC1=C(C)C(=O)c2c(c(COC(N)=O)c3n2CCC3OC(N)=O)C1=O (centres undefined)
inactive: endpoint: mean survival time, dose: 1.25 mg/kg/injection, schedule: Q01DX001 (ip), vehicle: distilled water + Tween-80 108 % of control | endpoint: mean survival time, dose: 1.5 mg/kg/injection, schedule: Q01DX001 (ip), vehicle: distilled water + Tween-80 114 % of control | endpoint: mean survival time, dose: 2.5 mg/kg/injection, schedule: Q01DX001 (ip), vehicle: distilled water + Tween-80 120 % of control | endpoint: mean survival time, dose: 3.0 mg/kg/injection, schedule: Q01DX001 (ip), vehicle: distilled water + Tween-80 118 % of control | endpoint: mean survival time, dose: 5.0 mg/kg/injection, schedule: Q01DX001 (ip), vehicle: distilled water + Tween-80 117 % of control | endpoint: mean survival time, dose: 6.0 mg/kg/injection, schedule: Q01DX001 (ip), vehicle: distilled water + Tween-80 116 % of control | endpoint: mean survival time, dose: 10.0 mg/kg/injection, schedule: Q01DX001 (ip), vehicle: distilled water + Tween-80 115 % of control | endpoint: mean survival time, dose: 12.0 mg/kg/injection, schedule: Q01DX001 (ip), vehicle: distilled water + Tween-80 122 % of control

N=C(N)c1ccc(Nc2ccc(C(=N)N)cc2)cc1
inactive: endpoint: mean survival time, dose: 3.0 mg/kg/injection, schedule: Q01DX009 (ip), vehicle: saline 96 % of control and 100 % of control | endpoint: mean survival time, dose: 6.0 mg/kg/injection, schedule: Q01DX009 (ip), vehicle: saline 100 % of control and 101 % of control | endpoint: mean survival time, dose: 12.0 mg/kg/injection, schedule: Q01DX009 (ip), vehicle: saline 93 % of control and 95 % of control | endpoint: mean survival time, dose: 24.0 mg/kg/injection, schedule: Q01DX009 (ip), vehicle: saline 98 % of control

O=C(O)COc1ccc([N+](=O)[O-])cc1
inactive: [7] 101 % of control | [8] 94 % of control | [9] 101 % of control

COC(O)C1OC(c2ccccc2)OC2C(CO)OC(c3ccccc3)OC12 (centres undefined)
inactive: [7] 90 % of control | [8] 90 % of control | [9] 90 % of control

CCCCCCCCCCCCOc1ccc(Cl)cc1Sc1cc(Cl)ccc1OCCCCCCCCCCCC
inactive: endpoint: mean survival time, dose: 100.0 mg/kg/injection, schedule: Q01DX001 (ip), vehicle: saline with Tween-80 92 % of control | [10] 93 % of control | endpoint: mean survival time, dose: 400.0 mg/kg/injection, schedule: Q01DX001 (ip), vehicle: saline with Tween-80 86 % of control

COC(=O)C(Br)C1CCCCC1 (centres undefined)
inactive: [11] 95 % of control | [7] 102 % of control | [1] 100 % of control | [8] 93 % of control | [2] 102 % of control

CC(=O)NCNC(C)=O
inactive: [12] 100 % of control | [13] 93 % of control | endpoint: mean survival time, dose: 400.0 mg/kg/injection, schedule: Q01DX001 (ip), vehicle: saline 100 % of control

COC/C=N/N(C)C
inactive: [14] 100 % of control | [15] 96 % of control

NCC(Cc1ccc(O)cc1)P(=O)(O)O (centres undefined)
inactive: [7] 102 % of control | [8] 105 % of control | [9] 93 % of control

Cc1ccc2nc(-c3ccc(N=Cc4ccccc4O)cc3)sc2c1
inactive: endpoint: mean survival time, dose: 12.5 mg/kg/injection, schedule: Q01DX009 (ip), vehicle: olive oil, sesame oil, peanut oil 100 % of control | endpoint: mean survival time, dose: 25.0 mg/kg/injection, schedule: Q01DX009 (ip), vehicle: olive oil, sesame oil, peanut oil 98 % of control | endpoint: mean survival time, dose: 50.0 mg/kg/injection, schedule: Q01DX009 (ip), vehicle: olive oil, sesame oil, peanut oil 102 % of control | endpoint: mean survival time, dose: 100.0 mg/kg/injection, schedule: Q01DX009 (ip), vehicle: olive oil, sesame oil, peanut oil 95 % of control | endpoint: mean survival time, dose: 200.0 mg/kg/injection, schedule: Q01DX009 (ip), vehicle: olive oil, sesame oil, peanut oil 100 % of control | endpoint: mean survival time, dose: 400.0 mg/kg/injection, schedule: Q01DX009 (ip), vehicle: olive oil, sesame oil, peanut oil 96 % of control

O=C(CC(O)(C(F)(F)F)C(F)(F)F)c1ccc(C(=O)CC(O)(C(F)(F)F)C(F)(F)F)cc1
inactive: [4] 105 % of control | [5] 105 % of control | [6] 113 % of control | endpoint: mean survival time, dose: 100.0 mg/kg/injection, schedule: Q04DX003 (ip), vehicle: other 113 % of control | endpoint: mean survival time, dose: 200.0 mg/kg/injection, schedule: Q04DX003 (ip), vehicle: other 105 % of control

O=C(Oc1ccc(OC(=O)c2ccccc2)c([N+](=O)[O-])c1)c1ccccc1
inactive: [14] 89 % of control | [15] 98 % of control | endpoint: mean survival time, dose: 300.0 mg/kg/injection, schedule: Q01DX001 (ip), vehicle: saline 98 % of control

CC(=O)CCCSCCO
inactive: [16] 101 % of control | endpoint: mean survival time, dose: 200.0 mg/kg/injection, schedule: Q04DX003 (ip), vehicle: saline 97 % of control | endpoint: mean survival time, dose: 400.0 mg/kg/injection, schedule: Q04DX003 (ip), vehicle: saline 101 % of control

COC1(OC)C2(Cl)CCC1(Cl)CC2
inactive: endpoint: mean survival time, dose: 50.0 mg/kg/injection, schedule: Q01DX001 (ip), vehicle: saline 103 % of control | [12] 113 % of control | [13] 102 % of control

CCc1c(C)[nH]c2ccc([N+](=O)[O-])cc12
inactive: [11] 103 % of control | [7] 94 % of control | [1] 100 % of control | [8] 97 % of control | [2] 93 % of control

CCN(Cc1ccc(Cl)c(Cl)c1)c1ccc2nc(N)nc(N)c2c1C
inactive: endpoint: mean survival time, dose: 1.5 mg/kg/injection, schedule: Q01DX009 (ip), vehicle: water 97 % of control | endpoint: mean survival time, dose: 3.0 mg/kg/injection, schedule: Q01DX009 (ip), vehicle: water 106 % of control | endpoint: mean survival time, dose: 24.0 mg/kg/injection, schedule: Q01DX009 (ip), vehicle: water 101 % of control | endpoint: median survival time, dose: 1.5 mg/kg/injection, schedule: Q01DX009 (ip), vehicle: water 103 % of control | endpoint: median survival time, dose: 3.0 mg/kg/injection, schedule: Q01DX009 (ip), vehicle: water 111 % of control | endpoint: median survival time, dose: 6.0 mg/kg/injection, schedule: Q01DX009 (ip), vehicle: water 112 % of control

Cc1ccc(C(=O)O)cc1
inactive: [1] 101 % of control | [2] 93 % of control | [3] 97 % of control

CC(=O)c1ccc2c3c(ccc([N+](=O)[O-])c13)CC2
inactive: [7] 94 % of control | [1] 100 % of control and 98 % of control | [2] 100 % of control and 98 % of control | [3] 98 % of control and 101 % of control

O=C(O)C1CC[N-]CC1.O=C(O)C1CC[N-]CC1.[Cl][Pt+2][Cl]
inactive: endpoint: mean survival time, dose: 50.0 mg/kg/injection, schedule: Q01DX001 (ip), vehicle: saline with Tween-80 110 % of control | [1] 107 % of control | [10] 110 % of control | [8] 97 % of control

CN(C)N=Nc1cc(C(F)(F)F)cc(C(F)(F)F)c1
inactive: [17] 104 % of control | [11] 101 % of control | [7] 98 % of control | [8] 95 % of control | [9] 104 % of control

O=C(OCC1CC=CC1)C1CC=CC1
inactive: endpoint: mean survival time, dose: 12.5 mg/kg/injection, schedule: Q01DX009 (ip), vehicle: saline with Tween-80 104 % of control | [17] 95 % of control | [11] 98 % of control

CC1(C)N=C(N)N=C(N)N1c1ccc(CNC(=O)Nc2cccc(S(=O)(=O)F)c2)cc1
inactive: endpoint: mean survival time, dose: 6.25 mg/kg/injection, schedule: Q01DX009 (ip), vehicle: saline 115 % of control | endpoint: mean survival time, dose: 75.0 mg/kg/injection, schedule: Q01DX001 (ip), vehicle: other 104 % of control | endpoint: mean survival time, dose: 150.0 mg/kg/injection, schedule: Q01DX001 (ip), vehicle: other 107 % of control | endpoint: mean survival time, dose: 300.0 mg/kg/injection, schedule: Q01DX001 (ip), vehicle: other 115 % of control

CCCCNCCCC
inactive: [16] 97 % of control

CCCC(C)(C)O
inactive: [1] 104 % of control | [2] 107 % of control | [3] 101 % of control

C=CCOC(=O)C1c2ccccc2Cc2ccccc21
inactive: [7] 92 % of control | [8] 106 % of control | [9] 92 % of control

c1ccc2c(c1)sc1[n+]2CCS1
inactive: [14] 113 % of control
